# Experimental data: patent US20260053931A1, “MDM2 TARGETING PROTACS” (THE WISTAR INSTITUTE OF ANATOMY AND BIOLOGY, priority 2023, published 2026)
# “Also recorded” adds a separate entry of the source. Where two headings read alike, the source gives them in different places.
# Columns and labels:
# [1] = Mouse pharmacokinetic study, intraperitoneal; type: in vivo; settings: single 10 mg/kg intraperitoneal dose, 0.25-6 h
# Description: (§1) To translate cell-based activity to in vivo efficacy, the Mdm2 PROTACs were evaluated for metabolic stability and plasma compound levels after IP injection in the mouse. Mouse liver microsome stability was obtained for lead compounds (Alliance Pharma, Inc; Malvern PA) as a predictive measure for suitable exposure in a mouse pharmacokinetic study. In brief, test compounds (0.5 μM) are incubated with liver microsomes ([…]) and an NADPH-regenerating system (cofactor solution) and samples are taken at various timepoints, quenched with an acetonitrile solution containing an internal standard, then analyzed by LC-MS/MS. […] Mouse pharmacokinetic studies for YX-02-030 and YX-02-288 were completed. Mouse plasma levels were evaluated following intraperitoneal (10 mg/kg) administration. Plasma was collected at timepoints 0.25 h, 0.5 h, 1 h, 2 h, 4 h and 6 h after Mdm2 PROTAC injection. Plasma was deproteinized and analyzed for compound using LC-MS/MS methods. Three mice were used for each time point and one control animal (Alliance Pharma Inc, Malvern PA).
# [2] = system: KPCA; assay: Cell death of other cancer cell lines: KPCA; type: cell-based; settings: Ovarian, Mouse
# Description: The PROTACs prepared herein were tested for their use in other cancer cell lines to determine activity in multiple different types of cancer.
# [3] = target: Mdm2 (Homo sapiens, UniProt Q00987); assay: Mdm2 HTRF binding assay (Table 2)
# Source text: An HTRF binding assay was developed using a biotinylated peptide containing the Mdm2-binding domain of p53 and a recombinant GST-tagged N-terminus of Mdm2 containing the p53-binding domain. HTRF is a proximity-based fluorescence energy transfer (FRET) assay that takes advantage of the unique time-resolved fluorescence of the lanthanide chelates, such as terbium and europium. HTRF IC50 values are provided for all key compounds (FIG. 13C, FIG. 19B, and Table 2).
# [4] = In vivo toxicity, C57Bl/6 mice; set-up: species or system mouse
# Description: FIGS. 24A-24E show no overt toxicities from the MDM2-PROTAC YX-02-030 observed in vivo. A-B. A. After C57Bl/6 immunocompetent mice received 15 consecutive intraperitoneal (IP) injections of MDM2-PROTAC (50 mg/kg) or vehicle control treatments, complete blood counts were determined. B. H&E sections of formalin-fixed paraffin-embedded tissues evaluated (B, BM-bone marrow). C-E, Nude mice with subcutaneous tumors of MDA-MB-231 and MDA-MB-436 TNBC cells were administered (IP) MDM2-PROTAC YX-02-030, RG7112D, or vehicle control (50 mg/kg) for 14 consecutive days. C. Mouse weight was measured daily throughout the course of treatment. D. Complete blood counts were determined following 13 consecutive treatments. E. Sections of formalin-fixed paraffin-embedded tissues from mice at time of sacrifice were H&E stained and evaluated. Representative images are shown and scale bars are 200 m (spleen) and 300 μm (bone marrow and intestine). Mean±SD (A, C, D).
# Prior to testing YX-02-030 tumors in vivo, mouse liver microsome and pharmacokinetic (PK) studies were performed to determine its stability in vivo. […] Due to its stability in vivo, the effectiveness of YX-02-030 was then evaluated at killing TNBC tumors in mice. […] The toxicity of YX-2-228 was analyzed as compared to both the vehicle and YX-2-30. […]
# [5] = system: MDA-MB-231 cells; assay: Proteomics analysis of degradation selectivity; type: cell-based, human; settings: 5 μM, 8 hours
# Description: A proteomics analysis was performed to assess the selectivity of degradation by YX-02-030. MDA-MB-231 cells were treated for 8 hours with 5 μM of YX-02-030 or DMSO in triplicate and processed to provide 25 μg of protein loaded on a 10% acrylamide gel. The entire protein-containing gel regions were excised, digested with trypsin and analyzed by liquid chromatography tandem mass spectrometry (LC-MS/MS) using a 240-min gradient as described (Chae et al., 2016). Peptide sequences were identified using MaxQuant 1.6.3.3 (Cox & Mann, 2008). MS/MS spectra were searched against a UniProt human protein database. […] Under these experimental conditions Mdm2 was not able to be detected either in the treated or untreated samples.
# [6] = system: TNBC patient-derived explants; assay: Patient-derived TNBC explants; type: cell-based, human
# Description: FIGS. 27A-27E show TP53 mutant TNBC patient-derived explants undergo apoptosis following treatment with the MDM2-PROTAC YX-02-030. A. TP53 sequenced in five fresh TNBC patient samples and used in explant and 3D mammosphere cultures. B-C. TNBC patient-derived explants were treated with the compounds indicated and Western blotting (B) and immunohistochemistry (IHC) of FFPE sections for cleaved Caspase-3 (C, n=3 paired patient samples) were performed. Representative images of H&E and cleaved Caspase-3 (CC3) IHC shown, including normal breast epithelium treated with MDM2-PROTAC YX-02-030; scale bar 300 m. D-E. Mammosphere cultures were established from TNBC patient samples, treated with the indicated compounds, and live-cell detection of Caspase-3/7 activity (D, quadruplicate) and mammosphere survival/ATP production (E, quadruplicate) were measured.
# To assess the effects of YX-02-030 on TNBC patient samples, fresh, surgically-resected tumor from five TNBC patients was obtained, and 80% were from Black/African American patients (FIG. 26). Each tumor had TP53 missense mutations with two having the same hot-spot (R248Q) p53 mutation and one that had 3 TP53 mutations (FIG. 27A). […]
# [7] = system: p53-null mouse sarcoma cells; assay: Murine Mdm2+/+ p53-null sarcoma cells, Western blot and MTT; type: cell-based
# [8] = Mouse liver microsomal stability; type: in vitro ADME; settings: mouse liver microsomes, 0.5 μM compound
# Description: as §1
# [9] = system: non-cancerous cells; assay: Western blot and MTT assay, non-cancerous cells
# Chain of Mdm2 (Q00987 26-109 limits assumed): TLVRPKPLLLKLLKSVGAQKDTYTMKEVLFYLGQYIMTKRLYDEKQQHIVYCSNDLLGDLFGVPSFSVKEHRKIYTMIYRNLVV
compound,measurement,setting,value
"CCOc1cc(C(C)(C)C)ccc1C1=N[C@](C)(c2ccc(Cl)cc2)[C@](C)(c2ccc(Cl)cc2)N1C(=O)N1CCN(CC(=O)NCCCNC(=O)COc2ccc3c(c2)CN(C(=O)[C@H](NC(=O)[C@@H](C)NC)C(C)(C)C)[C@@H](C(=O)N[C@H]2CCCc4ccccc42)C3)CC1 [YX-02-228, (R)-7-(2-((3-(2-(4-((4R,5S)-2-(4-(tert-butyl)-2-ethoxyphenyl)-4,5-bis(4-chlorophenyl)-4,5-dimethyl-4,5-dihydro-1H-imidazole-1-carbonyl)piperazin-1-yl)acetamido)propyl)amino)-2-oxoethoxy)-2-((R)-3,3-dimethyl-2-((R)-2-(methylamino)propanamido)butanoyl)-N-((S)-1,2,3,4-tetrahydronaphthalen-1-yl)-1,2,3,4-tetrahydroisoquinoline-3-carboxamide]",in vivo plasma levels,[1],prolonged in vivo plasma exposure
same,IC50,[2],3.4 µM
same,IC50,[3]; read-out: Mdm2 HTRF IC50,0.013 µM
CCOc1cc(C(C)(C)C)ccc1C1=N[C@](C)(c2ccc(Cl)cc2)[C@](C)(c2ccc(Cl)cc2)N1C(=O)N1CCN(CC(=O)NCCOCCOCCOCC(=O)N[C@H](C(=O)N2C[C@H](O)C[C@H]2C(=O)NCc2ccc(-c3scnc3C)cc2)C(C)(C)C)CC1 (racemic) [YX-02-030],overt toxicity,"[4]; C57Bl/6 mice and immune-deficient mice of the xenograft experiments, 50 mg/kg IP",no signs of overt toxicity
same,tolerability,"[4]; C57Bl/6 mice, 30 mg/kg IP, 2× daily",well tolerated
same,observable proteins affected,[5],< 10%
same,proteins significantly changed out of 4237,[5],31 proteins
same,apoptosis markers by Western blot,[6]; explants,increased levels of cleaved Caspase-3 and cleaved PARP
same,MDM2 protein in patient tumors,[6]; within 4 days of treatment,MDM2 protein was lost
same,p73 and apoptosis (cleaved caspase 3),[7]; Western blots after 24 hrs,stabilized p73 and induced apoptosis
same,killing of p53-null sarcoma cells,"[7]; increasing concentrations, MTT assay, 48 hrs",killed p53-null sarcoma cells
same,in vivo plasma levels,[1]; 10 mg/kg,prolonged in vivo plasma exposure; also recorded: plasma levels stable over 6 hours
same,IC50,[2],2.9 µM
same,IC50,[3],0.014 µM
same,half-life at 0.5 μM,[8],25.9 min
same,sensitivity of non-cancerous cells,[9],resistant
